Measured values reported in patent US4966900A, “Cephalosporin β-lactam compound and medicinal composition” (priority 1986, dated 1990).
In brackets after ≈: the same amount, converted by molar mass. Where a name gives a salt, the structure may show the parent alone.

How the values were obtained:
Experiment in all cases: MIC
E. cloacae 1V247 = assay type: cell-based; conditions: Enterobacter cloacae, Table 8
Method: (§1) The minimum inhibition concentrations (MIC) of the compounds obtained in the respective examples described above were measured according to the standard method of Japanese Chemotherapy Association.

S. aureus IAA498 = assay type: cell-based; conditions: Staphylococcus aureus, Table 7
Method: as §1

S. aureus Smith = conditions: Staphylococcus aureus, Table 7
E. coli ML4707 = conditions: Escherichia coli, ML4707, E. coli ML4707; Table 7
E. coli GN5482 = conditions: Escherichia coli, GN5482, E. coli GN5482; Table 7
K. pneumoniae 4at521 = conditions: Klebsiella pneumoniae, 4AT521
E. colacae GN7471 = conditions: Table 7
E. cloacae 908RN = conditions: Enterobacter cloacae, E. colacae 908RN, Table 7
C. freundii GN7391 = conditions: Citrobacter freundii, GN7391, C. freundii GN7391; Table 7
S. marcescens GN10857 = conditions: Serratia marcescens, GN10857, S. marcescens GN10857; Table 7
P. vulgaris GN7919 = conditions: Proteus vulgaris, GN7919
P. aeruginosa GN10362 = conditions: Pseudomonas aeruginosa, GN10362
P. aeruginosa 4au542 = conditions: Pseudomonas aeruginosa, 4AU542, P. aeruginosa 4au542; Table 7
P. aeruginosa 5D58-1 = conditions: Pseudomonas aeruginosa, 5D581, P. aeruginosa 5D58-1; Table 7
P. cepacia OF189 = conditions: Burkholderia cepacia, OF189, P. cepacia OF189; Table 7
P. maltophilia OF247 = conditions: Stenotrophomonas maltophilia, Table 7
E. cloacae 5D52-2 = conditions: Enterobacter cloacae, 5D522
E. cloacae 5D63-2 = conditions: Enterobacter cloacae, 5D632
E. cloacae 1V25 = conditions: Enterobacter cloacae
C. freundii 5D60-1 = conditions: Citrobacter freundii, 5D601
C. freundii 1R523 = conditions: Citrobacter freundii, 1R523
C. freundii 1R524 = conditions: Citrobacter freundii, 1R524
C. freundii 1R526 = conditions: Citrobacter freundii, 1R526
C. freundii 1R527 = conditions: Citrobacter freundii, 1R527
C. freundii 1U589 = conditions: Citrobacter freundii, 1U589
C. freundii 1U692 = conditions: Citrobacter freundii, 1U692

SMILES | MIC (E. cloacae 1V247) [µg/mL] | MIC (S. aureus IAA498) [µg/mL] | MIC (S. aureus Smith) [µg/mL] | MIC (E. coli ML4707) [µg/mL] | MIC (E. coli GN5482) [µg/mL] | MIC (K. pneumoniae 4at521) [µg/mL] | MIC (E. colacae GN7471) [µg/mL] | MIC (E. cloacae 908RN) [µg/mL] | MIC (C. freundii GN7391) [µg/mL] | MIC (S. marcescens GN10857) [µg/mL] | MIC (P. vulgaris GN7919) [µg/mL] | MIC (P. aeruginosa GN10362) [µg/mL] | MIC (P. aeruginosa 4au542) [µg/mL] | MIC (P. aeruginosa 5D58-1) [µg/mL] | MIC (P. cepacia OF189) [µg/mL] | MIC (P. maltophilia OF247) [µg/mL] | MIC (E. cloacae 5D52-2) [µg/mL] | MIC (E. cloacae 5D63-2) [µg/mL] | MIC (E. cloacae 1V25) [µg/mL] | MIC (C. freundii 5D60-1) [µg/mL] | other results
Cc1cc(SCC2=C(C(=O)O)N3C(=O)C(NC(=O)C(=NOC(C)(C)C(=O)NNC(=O)c4ccc(O)c(O)c4)c4csc(N)n4)[C@H]3SC2)n2nccc2n1 (stereo partly shown) [Example 58, 7-{2-[2-Amino-1,3-thiazol-4-yl]-2-[1-(3-(3,4-dihydroxybenzoyl)carbazoyl)-1-methylethoxyimino]acetamido}-3-[(5-methylpyrazolo[1,5-a]pyrimidin-7-yl)thiomethyl]-3-cephem-4-carboxylic acid] | 6.25 (≈ 7.98 µM) | 3.13 (≈ 4 µM) | 1.56 (≈ 1.99 µM) | < 0.006 | < 0.006 | 0.012 (≈ 0.0153 µM) | 1.56 (≈ 1.99 µM) | 0.39 (≈ 0.498 µM) | 3.13 (≈ 4 µM) | 1.56 (≈ 1.99 µM) | 1.56 (≈ 1.99 µM) | 0.1 (≈ 0.128 µM) | 0.2 (≈ 0.255 µM) | 0.05 (≈ 0.0639 µM) | 0.012 (≈ 0.0153 µM) | 1.56 (≈ 1.99 µM) | 0.1 (≈ 0.128 µM) | 0.39 (≈ 0.498 µM) | 6.25 (≈ 7.98 µM) | 1.56 (≈ 1.99 µM) | MIC (C. freundii 1R523): 0.39 µg/mL (≈ 0.498 µM); MIC (C. freundii 1R524): 0.39 µg/mL (≈ 0.498 µM); MIC (C. freundii 1R526): 3.13 µg/mL (≈ 4 µM); MIC (C. freundii 1R527): 1.56 µg/mL (≈ 1.99 µM); MIC (C. freundii 1U589): 3.13 µg/mL (≈ 4 µM); MIC (C. freundii 1U692): 1.56 µg/mL (≈ 1.99 µM)
CC(C)(ON=C(C(=O)NC1C(=O)N2C(C(=O)O)=C(CSc3ccnc4nc(C(=O)O)nn34)CS[C@H]12)c1csc(N)n1)C(=O)NNC(=O)c1ccc(O)c(O)c1 (stereo partly shown) [Example 56, 7-{2-[2-Amino-1,3-thiazol-4-yl]-2-[1-(3-(3,4-dihydroxybenzoyl)carbazoyl)-1-methylethoxyimino]acetamido}-3-[(2-carboxy-s-triazolo[1,5-a]pyrimidin-7-yl)thiomethyl]-3-cephem-4-carboxylic acid] | 12.5 (≈ 15.4 µM) | 12.5 (≈ 15.4 µM) | 6.25 (≈ 7.68 µM) | 0.025 (≈ 0.0307 µM) | 0.025 (≈ 0.0307 µM) | 0.025 (≈ 0.0307 µM) | 0.39 (≈ 0.479 µM) | 1.56 (≈ 1.92 µM) | 25 (≈ 30.7 µM) | 0.39 (≈ 0.479 µM) | 1.56 (≈ 1.92 µM) | 0.1 (≈ 0.123 µM) | 0.2 (≈ 0.246 µM) | 0.05 (≈ 0.0614 µM) | < 0.006 | 0.39 (≈ 0.479 µM) | 0.1 (≈ 0.123 µM) | 1.56 (≈ 1.92 µM) | 12.5 (≈ 15.4 µM) | 6.25 (≈ 7.68 µM) | MIC (C. freundii 1R523): 1.56 µg/mL (≈ 1.92 µM); MIC (C. freundii 1R524): 1.56 µg/mL (≈ 1.92 µM); MIC (C. freundii 1R526): 3.13 µg/mL (≈ 3.85 µM); MIC (C. freundii 1R527): 1.56 µg/mL (≈ 1.92 µM); MIC (C. freundii 1U589): 6.25 µg/mL (≈ 7.68 µM); MIC (C. freundii 1U692): 6.25 µg/mL (≈ 7.68 µM)
CC(=O)Oc1ccc(C(=O)NNC(=O)C(C)(C)ON=C(C(=O)NC2C(=O)N3C(C(=O)O)=C(CSc4cc(C)nc5nc(C(F)(F)F)nn45)CS[C@H]23)c2csc(N)n2)cc1OC(C)=O (stereo partly shown) [Example 48, 7-{2-[2-Amino-1,3-thiazol-4-yl]-2-[1-(3-(3,4-diacetoxybenzoyl)carbazoyl)-1-methylethoxyimino]acetamido}-3-[(5-methyl-2-trifluoromethyl-s-triazolo[1,5-a]pyrimidin-7-yl)-thiomethyl]-3-cephem-4-carboxylic acid] | 50 (≈ 53.4 µM) | 12.5 (≈ 13.4 µM) | 6.25 (≈ 6.68 µM) | 0.1 (≈ 0.107 µM) | 0.05 (≈ 0.0534 µM) | 0.1 (≈ 0.107 µM) | 12.5 (≈ 13.4 µM) | 3.13 (≈ 3.34 µM) | 12.5 (≈ 13.4 µM) | 12.5 (≈ 13.4 µM) | 3.13 (≈ 3.34 µM) | 0.78 (≈ 0.833 µM) | 1.56 (≈ 1.67 µM) | 0.78 (≈ 0.833 µM) | < 0.006 | 12.5 (≈ 13.4 µM) | 1.56 (≈ 1.67 µM) | 1.56 (≈ 1.67 µM) | 50 (≈ 53.4 µM) | 12.5 (≈ 13.4 µM) | MIC (C. freundii 1R523): 0.78 µg/mL (≈ 0.833 µM); MIC (C. freundii 1R524): 0.78 µg/mL (≈ 0.833 µM); MIC (C. freundii 1R526): 12.5 µg/mL (≈ 13.4 µM); MIC (C. freundii 1R527): 25 µg/mL (≈ 26.7 µM); MIC (C. freundii 1U589): 12.5 µg/mL (≈ 13.4 µM); MIC (C. freundii 1U692): 12.5 µg/mL (≈ 13.4 µM)
CC(=O)Oc1ccc(C(=O)NNC(=O)C(C)(C)ON=C(C(=O)NC2C(=O)N3C(C(=O)O)=C(CSc4ccnc5nc(C(=O)O)nn45)CS[C@H]23)c2csc(N)n2)cc1OC(C)=O (stereo partly shown) [Example 46, 7-{2-[2-Amino-1,3-thiazol-4-yl]-2-[1-(3-(3,4-diacetoxybenzoyl)carbazoyl)-1-methylethoxyimino]acetamido}-3-[(2-carboxy-s-triazolo[1,5-a]pyrimidin-7-yl)thiomethyl]-3-cephem-4-carboxylic acid] | 25 (≈ 27.8 µM) | 25 (≈ 27.8 µM) | 12.5 (≈ 13.9 µM) | 0.05 (≈ 0.0557 µM) | 0.05 (≈ 0.0557 µM) | 0.025 (≈ 0.0278 µM) | 0.78 (≈ 0.869 µM) | 12.5 (≈ 13.9 µM) | 100 (≈ 111 µM) | 0.78 (≈ 0.869 µM) | 12.5 (≈ 13.9 µM) | 0.2 (≈ 0.223 µM) | 0.39 (≈ 0.434 µM) | 0.2 (≈ 0.223 µM) | < 0.006 | 0.78 (≈ 0.869 µM) | 0.39 (≈ 0.434 µM) | 5.25 (≈ 5.85 µM) | 25 (≈ 27.8 µM) | 12.5 (≈ 13.9 µM) | MIC (C. freundii 1R523): 3.13 µg/mL (≈ 3.49 µM); MIC (C. freundii 1R524): 3.13 µg/mL (≈ 3.49 µM); MIC (C. freundii 1R526): 3.13 µg/mL (≈ 3.49 µM); MIC (C. freundii 1R527): 3.13 µg/mL (≈ 3.49 µM); MIC (C. freundii 1U589): 6.25 µg/mL (≈ 6.96 µM); MIC (C. freundii 1U692): 6.25 µg/mL (≈ 6.96 µM)
CC(=O)Oc1ccc(C(=O)NNC(=O)C(C)(C)ON=C(C(=O)NC2C(=O)N3C(C(=O)O)=C(CSc4cc(C)nc5c(C(=O)O)cnn45)CSC23)c2csc(N)n2)cc1OC(C)=O (stereo not shown) [Example 53, 7-{2-[2-amino-1,3-thiazol-4-yl]-2-[1-(3-(3,4-diacetoxybenzoyl)carbazoyl)-1-methylethoxyimino]acetamido}-3-[(3-carboxy-5-methylpyrazolo[1,5-a]pyrimidin-7-yl)thiomethyl-3-cephem-4-carboxylic acid sodium salt] | 12.5 | 12.5 | 12.5 | 0.012 | 0.012 | 0.012 | 0.78 | 0.78 | 6.25 | 0.78 | 1.56 | 0.05 | 0.05 | 0.1 | < 0.006 | 0.78 | 0.1 | 0.39 | 6.25 | 3.13 | MIC (C. freundii 1R523): 0.78 µg/mL; MIC (C. freundii 1R524): 0.78 µg/mL; MIC (C. freundii 1R526): 0.78 µg/mL; MIC (C. freundii 1R527): 0.78 µg/mL; MIC (C. freundii 1U589): 3.13 µg/mL; MIC (C. freundii 1U692): 1.56 µg/mL
